The target of experiment [1] is T1, Solute carrier family 15 member 1 (Rattus norvegicus) (UniProt P51574).
T1 sequence (whole entry): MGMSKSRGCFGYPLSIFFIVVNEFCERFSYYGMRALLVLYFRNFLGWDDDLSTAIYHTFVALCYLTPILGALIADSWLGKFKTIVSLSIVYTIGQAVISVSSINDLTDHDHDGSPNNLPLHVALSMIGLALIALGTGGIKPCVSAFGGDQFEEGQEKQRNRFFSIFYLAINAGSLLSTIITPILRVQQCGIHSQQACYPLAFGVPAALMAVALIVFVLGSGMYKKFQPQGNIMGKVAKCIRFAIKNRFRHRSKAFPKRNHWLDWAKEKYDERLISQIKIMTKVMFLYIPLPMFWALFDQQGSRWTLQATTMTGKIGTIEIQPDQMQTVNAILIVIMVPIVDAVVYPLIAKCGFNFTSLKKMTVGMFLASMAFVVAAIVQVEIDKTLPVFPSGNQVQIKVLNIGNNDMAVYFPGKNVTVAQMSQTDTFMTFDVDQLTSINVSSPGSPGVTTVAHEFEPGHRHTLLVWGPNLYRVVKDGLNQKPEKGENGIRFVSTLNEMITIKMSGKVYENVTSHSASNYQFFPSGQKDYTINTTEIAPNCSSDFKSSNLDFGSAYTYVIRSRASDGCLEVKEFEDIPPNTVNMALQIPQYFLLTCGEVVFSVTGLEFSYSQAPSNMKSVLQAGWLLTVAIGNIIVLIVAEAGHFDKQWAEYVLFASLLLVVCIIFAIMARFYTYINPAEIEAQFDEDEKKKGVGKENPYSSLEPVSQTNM
Put plainly: TP_TRANSPORTER: uptake in Xenopus laevis oocytes. Type of experiment: functional, cell-based. The conditions noted are these: Oocyte.

For experiment [2], the target named is T2, Solute carrier family 15 member 1 (Rattus norvegicus, UniProt P51574).
T2 sequence (P51574 whole entry): T1 sequence (whole entry)
Nature of the experiment: TP_TRANSPORTER: inhibition of D-Phe-L-Gln uptake in Xenopus laevis oocytes. It is filed as functional, cell-based, Oocyte.

Turning to `NC(=O)CC[C@H](NC(=O)[C@H](N)Cc1ccccc1)C(=O)O`, the Activity result in experiment [1] is “substrate [+]”.

Turning to `C[C@H](CS)C(=O)N1CCC[C@H]1C(=O)O` [CAPTOPRIL], in experiment [2], the Ki turned out to be 8.7 mM.

`CCOC(=O)[C@H](CCc1ccccc1)N[C@@H](C)C(=O)N1CCC[C@H]1C(=O)O` [ENALAPRIL] yielded a Ki in experiment [2] of 4.3 mM.

A word on the Ki: it is the dissociation constant of the complex between target and ligand, obtained from inhibition or displacement. A high value points to a looser hold on the target.

For the origin of these results see ChEMBL document CHEMBL2074272, “Proton-coupled oligopeptide transport by rat renal cortical brush border membrane vesicles: a functional analysis using ACE inhibitors to determine the isoform of the transporter” (Biochim Biophys Acta, 1998).
